Data published in patent US10562857B2 (AFASCI, Inc., priority 2015, dated 2020).
Where two headings read alike, the source gives them in different places.

Legend:
Cav3.2 channel = molecular target: T1, Cav3.2 channel (Homo sapiens, UniProt O95180); assay: Whole-cell patch clamp of T-type Cav3.2 channel expressed in HEK293 cells; format: cell-based
T1 construct: expressed in transfected cells; host or cells: HEK-293, tetracycline inducible expression system (Invitrogen)

hERG channel = molecular target: T2, hERG channel (Homo sapiens, UniProt Q12809); assay: hERG patch clamp in hERG-expressing CHO cells; format: cell-based
T2 construct: expressed in transfected cells; host or cells: CHO
T2 sequence (Q12809 whole entry): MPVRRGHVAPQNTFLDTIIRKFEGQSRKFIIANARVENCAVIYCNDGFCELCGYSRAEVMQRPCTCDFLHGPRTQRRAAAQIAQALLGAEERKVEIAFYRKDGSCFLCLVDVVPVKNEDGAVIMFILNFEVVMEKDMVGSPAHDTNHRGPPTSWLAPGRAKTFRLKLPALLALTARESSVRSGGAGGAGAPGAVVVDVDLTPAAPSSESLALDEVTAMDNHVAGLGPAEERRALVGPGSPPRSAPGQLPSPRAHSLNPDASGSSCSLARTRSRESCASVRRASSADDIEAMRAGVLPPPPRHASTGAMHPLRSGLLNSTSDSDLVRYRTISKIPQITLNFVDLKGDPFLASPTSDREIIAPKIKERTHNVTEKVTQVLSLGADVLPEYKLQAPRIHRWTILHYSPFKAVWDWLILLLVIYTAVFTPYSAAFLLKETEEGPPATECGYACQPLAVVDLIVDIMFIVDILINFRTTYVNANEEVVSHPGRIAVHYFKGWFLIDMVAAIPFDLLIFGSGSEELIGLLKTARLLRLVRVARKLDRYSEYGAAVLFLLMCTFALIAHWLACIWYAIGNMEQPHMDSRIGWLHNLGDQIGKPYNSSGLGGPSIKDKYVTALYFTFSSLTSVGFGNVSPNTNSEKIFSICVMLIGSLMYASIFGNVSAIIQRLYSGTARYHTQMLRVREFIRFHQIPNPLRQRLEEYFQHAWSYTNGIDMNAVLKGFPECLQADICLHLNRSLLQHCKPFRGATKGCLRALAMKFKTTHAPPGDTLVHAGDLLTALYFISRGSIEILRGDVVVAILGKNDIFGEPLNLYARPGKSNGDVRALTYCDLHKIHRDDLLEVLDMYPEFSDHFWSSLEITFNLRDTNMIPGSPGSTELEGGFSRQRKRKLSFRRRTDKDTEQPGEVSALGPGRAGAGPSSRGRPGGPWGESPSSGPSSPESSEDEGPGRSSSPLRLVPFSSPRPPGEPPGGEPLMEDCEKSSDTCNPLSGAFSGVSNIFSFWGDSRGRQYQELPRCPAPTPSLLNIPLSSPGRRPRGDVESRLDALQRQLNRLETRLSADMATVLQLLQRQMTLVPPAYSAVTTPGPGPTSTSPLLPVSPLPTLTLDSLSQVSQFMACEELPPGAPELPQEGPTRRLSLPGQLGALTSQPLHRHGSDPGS
Procedure: Sodium and potassium channels in the rodent DRG neurons were recorded and tested as described above. The human ether-a-go-go-related gene (hERG) encodes the rapidly activating potassium channel (IKr) contributing to the repolarization of the cardiac action potential. […] Therefore the representative example compounds in Table 2 were tested against the hERG channel.
Whole-cell patch clamp electrophysiology is employed to test compounds and a positive control compound. Extracellular Ringer's solution contains (in mM): NaCl (130), KCl (5), CaCl2 (1), Glucose (10), HEPES-Na (10) (pH 7.4 adjusted with HCl). Internal pipette solution contains (in mM): KF (120), CaCl2 (1), MgCl2 (1), KCl (10), EGTA (11), HEPES (10), KOH (11) (pH 7.2 adjusted with KOH). The hERG potassium currents are recorded under a holding potential of −80 mV and then depolarized to 40 mV for 2.5 seconds to activate the hERG channel. The peak tail currents are induced by a repolarizing pulse to −50 mV for 4 seconds. A 250 millisecond prepulse to −50 mV is applied for leak subtraction. This voltage-clamp pulse protocol is performed continuously during the experiment every 20 seconds allowing recovery from inactivation. For IC50 determination, each concentration is applied for 2 mins to reach a steady-state inhibitory level prior to the next higher concentrations tested. Each concentration is tested at 2-3 times (n=2-3).

[1] = Table 1, tested at at least 4 concentrations, read-out: IC50
[2] = Table 3A, read-out: Cav3.2 IC50

T1 sequence (O95180 whole entry): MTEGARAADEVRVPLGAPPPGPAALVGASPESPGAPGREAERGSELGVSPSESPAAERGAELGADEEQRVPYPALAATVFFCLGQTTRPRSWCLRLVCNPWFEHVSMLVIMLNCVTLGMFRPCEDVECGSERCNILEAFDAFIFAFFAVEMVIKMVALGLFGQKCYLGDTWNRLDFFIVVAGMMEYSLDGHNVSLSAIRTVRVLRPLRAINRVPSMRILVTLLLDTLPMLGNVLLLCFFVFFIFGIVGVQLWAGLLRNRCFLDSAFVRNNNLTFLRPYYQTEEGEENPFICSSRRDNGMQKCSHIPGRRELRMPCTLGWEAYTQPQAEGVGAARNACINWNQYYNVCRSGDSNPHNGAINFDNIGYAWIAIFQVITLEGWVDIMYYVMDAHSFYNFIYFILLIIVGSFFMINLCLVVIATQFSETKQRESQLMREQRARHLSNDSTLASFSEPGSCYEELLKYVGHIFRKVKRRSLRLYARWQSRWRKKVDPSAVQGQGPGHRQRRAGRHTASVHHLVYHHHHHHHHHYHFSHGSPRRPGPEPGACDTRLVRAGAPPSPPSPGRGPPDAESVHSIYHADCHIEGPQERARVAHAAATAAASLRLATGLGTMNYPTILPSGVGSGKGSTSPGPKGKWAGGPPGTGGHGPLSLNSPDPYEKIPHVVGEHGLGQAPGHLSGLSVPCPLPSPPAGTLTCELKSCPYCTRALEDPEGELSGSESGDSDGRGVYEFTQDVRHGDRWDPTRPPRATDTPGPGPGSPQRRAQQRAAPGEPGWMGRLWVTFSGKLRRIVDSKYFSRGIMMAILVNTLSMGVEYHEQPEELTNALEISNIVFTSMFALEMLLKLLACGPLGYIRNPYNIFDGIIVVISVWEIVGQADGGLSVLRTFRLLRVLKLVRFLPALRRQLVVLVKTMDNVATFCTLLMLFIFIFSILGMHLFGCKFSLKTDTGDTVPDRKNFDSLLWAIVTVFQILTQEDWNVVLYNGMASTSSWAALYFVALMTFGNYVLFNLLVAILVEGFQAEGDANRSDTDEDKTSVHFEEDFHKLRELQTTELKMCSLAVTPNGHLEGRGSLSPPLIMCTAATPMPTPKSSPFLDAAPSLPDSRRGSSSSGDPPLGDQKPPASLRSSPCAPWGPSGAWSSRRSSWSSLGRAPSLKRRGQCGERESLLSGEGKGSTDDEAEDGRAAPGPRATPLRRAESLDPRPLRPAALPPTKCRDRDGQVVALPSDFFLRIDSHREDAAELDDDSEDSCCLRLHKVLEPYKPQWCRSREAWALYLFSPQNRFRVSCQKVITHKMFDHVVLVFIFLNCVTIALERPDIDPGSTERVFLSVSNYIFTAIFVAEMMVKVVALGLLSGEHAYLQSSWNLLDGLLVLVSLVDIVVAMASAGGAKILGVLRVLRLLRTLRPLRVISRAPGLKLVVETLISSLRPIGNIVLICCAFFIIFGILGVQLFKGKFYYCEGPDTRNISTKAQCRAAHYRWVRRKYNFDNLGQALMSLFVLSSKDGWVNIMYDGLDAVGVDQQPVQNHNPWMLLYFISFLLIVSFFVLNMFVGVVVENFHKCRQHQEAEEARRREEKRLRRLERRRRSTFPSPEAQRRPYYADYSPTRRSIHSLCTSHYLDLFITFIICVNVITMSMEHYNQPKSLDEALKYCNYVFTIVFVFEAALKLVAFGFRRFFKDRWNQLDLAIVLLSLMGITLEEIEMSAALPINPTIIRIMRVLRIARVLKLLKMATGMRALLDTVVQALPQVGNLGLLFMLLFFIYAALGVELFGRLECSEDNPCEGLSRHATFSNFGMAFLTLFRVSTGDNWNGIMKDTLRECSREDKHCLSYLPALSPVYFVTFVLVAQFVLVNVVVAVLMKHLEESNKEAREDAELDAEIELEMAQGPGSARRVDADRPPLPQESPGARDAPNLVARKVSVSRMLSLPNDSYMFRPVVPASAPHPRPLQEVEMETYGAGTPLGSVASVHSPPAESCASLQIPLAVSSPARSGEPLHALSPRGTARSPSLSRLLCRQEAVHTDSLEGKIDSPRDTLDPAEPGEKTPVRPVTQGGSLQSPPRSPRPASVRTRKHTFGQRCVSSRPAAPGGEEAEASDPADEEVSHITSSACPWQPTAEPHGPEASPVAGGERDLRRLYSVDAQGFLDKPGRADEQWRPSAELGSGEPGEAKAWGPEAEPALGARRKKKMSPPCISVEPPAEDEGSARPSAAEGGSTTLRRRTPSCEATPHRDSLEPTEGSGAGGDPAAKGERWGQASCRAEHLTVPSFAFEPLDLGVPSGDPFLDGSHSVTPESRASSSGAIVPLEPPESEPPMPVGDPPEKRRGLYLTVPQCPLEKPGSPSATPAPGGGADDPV

SMILES	IC50 (Cav3.2 channel; [1]) [nM]	IC50 (Cav3.2 channel; Table 2, read-out: Cav3.2 IC50) [nM]	IC50 (hERG channel; Table 2, read-out: hERG IC50) [nM]	further results
CC(C)(C)NC(=O)CN1CCC2(CC1)C[C@H]2NC(=O)c1cc(F)cc(C(F)(F)F)c1 (single isomer, unassigned) [Example 130, (R)—N-(6-(2-(tert-Butylamino)-2-oxoethyl)-6-azaspiro[2.5]octan-1-yl)-3-fluoro-5-(trifluoromethyl)benzamide or (S)—N-(6-(2-(tert-Butylamino)-2-oxoethyl)-6-azaspiro[2.5]octan-1-yl)-3-fluoro-5-(trifluoromethyl)benzamide]	180	180	8000	
CC(C)(C)NC(=O)CN1CCC2(CC1)C[C@H]2NC(=O)c1cc(Cl)cc(Cl)c1 (single isomer, unassigned) [Example 57, (R)—N-(6-(2-(tert-Butylamino)-2-oxoethyl)-6-azaspiro[2.5]octan-1-yl)-3,5-dichlorobenzamide or (S)—N-(6-(2-(tert-Butylamino)-2-oxoethyl)-6-azaspiro[2.5]octan-1-yl)-3,5-dichlorobenzamide]	60	60		inhibition at 1 µM (hERG channel; human, CHO cells expressing hERG, pH 7.4, 1 μM, values in brackets, read-out: hERG (%) inh. at 1 μM): 22%
CC(C)(C)NC(=O)CN1CCC2(CC1)CC2NC(=O)c1cc(F)cc(Cl)c1 (single isomer, unassigned) [Example 128, (S)—N-(6-(2-(tert-Butylamino)-2-oxoethyl)-6-azaspiro[2.5]octan-1-yl)-3-chloro-5-fluorobenzamide or (R)—N-(6-(2-(tert-Butylamino)-2-oxoethyl)-6-azaspiro[2.5]octan-1-yl)-3-chloro-5-fluorobenzamide]	110	90		% Use-Dep (use-dependent drug action) (Cav3.2 channel; Table 3A): 21.3%; IC50 (Cav3.2 channel; [2]): 89 nM; IC50 (hERG channel): 7000 nM
O=C(Nc1nnc(-c2ccccc2)o1)c1ccc(Cl)s1 [Example 115, 5-Chloro-N-(5-phenyl-1,3,4-oxadiazol-2-yl)thiophene-2-carboxamide]	930			
CC(C)(C)NC(=O)CN1CCC2(CC1)C[C@H]2C(=O)Nc1cc(C(F)(F)F)cc(C(F)(F)F)c1 (single isomer, unassigned) [Example 132, (R)—N-(3,5-Bis(trifluoromethyl)phenyl)-6-(2-(tert-butylamino)-2-oxoethyl)-6-azaspiro[2.5]octane-1-carboxamide or (S)—N-(3,5-Bis(trifluoromethyl)phenyl)-6-(2-(tert-butylamino)-2-oxoethyl)-6-azaspiro[2.5]octane-1-carboxamide]				IC50 (Cav3.2 channel; read-out: Cav3.2 IC50): 140 nM; IC50 (Cav3.2 channel; read-out: IC50): 140 nM; hERG (%) inh. at 1 μM (hERG channel; 1 μM, values in brackets): (9%)
CC(C)(C)CCN1CCC2(CC1)C[C@H]2NC(=O)c1cc(C(F)(F)F)cc(C(F)(F)F)c1 (single isomer, unassigned) [Example 146, (R)—N-(6-(3,3-dimethylbutyl)-6-azaspiro[2.5]octan-1-yl)-3,5-bis(trifluoromethyl)benzamide or (S)—N-(6-(3,3-dimethylbutyl)-6-azaspiro[2.5]octan-1-yl)-3,5-bis(trifluoromethyl)benzamide]	70	70	1200	
CC(C)(C)NC(=O)CN1CCC2(CC1)C[C@H]2NC(=O)c1cc(F)cc(Cl)c1 (single isomer, unassigned) [Example 129, (R)—N-(6-(2-(tert-Butylamino)-2-oxoethyl)-6-azaspiro[2.5]octan-1-yl)-3-chloro-5-fluorobenzamide or (S)—N-(6-(2-(tert-Butylamino)-2-oxoethyl)-6-azaspiro[2.5]octan-1-yl)-3-chloro-5-fluorobenzamide]	870	870	16000	
CC(C)(C)NC(=O)CN1CCC2(CC1)CC2NC(=O)c1cc(F)cc(Cl)c1 (centres unmarked) [Example 17, N-(6-(2-(tert-Butylamino)-2-oxoethyl)-6-azaspiro[2.5]octan-1-yl)-3-chloro-5-fluorobenzamide]	240	240		IC50 (hERG channel): 10700 nM
CC(C)(C)NC(=O)CN1CCC(CNC(=O)c2cc(F)cc(Cl)c2)CC1 [Z944, reference compound]		190	9500	% Use-Dep (use-dependent drug action) (Cav3.2 channel; Table 3A): 17.6%; IC50 (Cav3.2 channel; [2]): 200 nM
CC(C)(C)CCN1C[C@@H]2[C@@H](CNC(=O)c3cc(Cl)cc(Cl)c3)[C@@H]2C1 [ML218, 3,5-Dichloro-N-[[(1α,5α,6-exo,6α)-3-(3,3-dimethylbutyl)-3-azabicyclo[3.1.0]hex-6-yl]methyl]benzamide, reference compound]		310	2100	% Use-Dep (use-dependent drug action) (Cav3.2 channel; Table 3A): 19.2%; IC50 (Cav3.2 channel; [2]): 310 nM
CC(C)(C)CCN1CCC2(CC1)C[C@H]2NC(=O)c1cc(C(F)(F)F)ccc1Cl (single isomer, unassigned) [Example 147, (R)-2-Chloro-N-(6-(3,3-dimethylbutyl)-6-azaspiro[2.5]octan-1-yl)-5-(trifluoromethyl)benzamide or (S)-2-Chloro-N-(6-(3,3-dimethylbutyl)-6-azaspiro[2.5]octan-1-yl)-5-(trifluoromethyl)benzamide]	130	130	1800	
CC(C)(C)NC(=O)CN1CCC2(CC1)C[C@H]2NC(=O)C12CC3CC(CC(C3)C1)C2 (single isomer, unassigned) [Example 145, N—((R)-6-(2-(tert-butylamino)-2-oxoethyl)-6-azaspiro[2.5]octan-1-yl)adamantane-1-carboxamide or N—((S)-6-(2-(tert-butylamino)-2-oxoethyl)-6-azaspiro[2.5]octan-1-yl)adamantane-1-carboxamide]	140	140	> 30000	
CC(C)(C)CCN1CCC2(CC1)CC2NC(=O)c1cc(F)cc(Cl)c1 (centres unmarked) [Example 28, 3-Chloro-N-(6-(3,3-dimethylbutyl)-6-azaspiro[2.5]octan-1-yl)-5-fluorobenzamide]	70	70		IC50 (hERG channel): 3600 nM
CC(C)(C)NC(=O)CN1CCC2(CC1)CC2C(=O)Nc1cc(F)cc(C(F)(F)F)c1 (centres unmarked) [Example 141, 6-(2-(tert-Butylamino)-2-oxoethyl)-N-(3-fluoro-5-(trifluoromethyl)phenyl)-6-azaspiro[2.5]octane-1-carboxamide]	180	180	17400	
CC(C)(C)NC(=O)CN1CCC2(CC1)C[C@H]2NC(=O)c1cc(C(F)(F)F)cc(C(F)(F)F)c1 (single isomer, unassigned) [Example 144, ((R)—N-(6-(2-(tert-butylamino)-2-oxoethyl)-6-azaspiro[2.5]octan-1-yl)-3,5-bis(trifluoromethyl)benzamide or (S)—N-(6-(2-(tert-butylamino)-2-oxoethyl)-6-azaspiro[2.5]octan-1-yl)-3,5-bis(trifluoromethyl)benzamide]	80	80	4600	
